# Laboratory results as given in patent US20040014972A1, “Arylpiperazine derivatives and their use as psychotropic agents” (priority 2000, published 2004).
row,melting point [°C],SMILES
1,233 to 234,Cl.Cl.O=C(CCCN1CCN(c2cccc3[nH]ccc23)CC1)c1ccc(F)cc1
2,145 to 146,O=C(O)/C=C/C(=O)O.OC(CCCN1CCN(c2cccc3cccnc23)CC1)c1ccc(F)cc1 (stereo not drawn)
3,119 to 120,Cl.Cl.Cl.O.O.O=C(CCCN1CCN(c2cccc3cccnc23)CC1)c1ccc(F)cc1 (hydrate or solvate)
